We go through 43 compounds from patent publication US8394828B2 (Janssen Pharmaceutica, NV, priority 2003, dated 2013).

For test [1], the target named is T1, human VR1 (Homo sapiens, UniProt Q8NER1).
T1 construct: expressed in transfected cells; host or cells: HEK293
The test can be described thus: Human VR1 [3H] RTX binding assay. As to conditions: 3H-RTX binding; for inhibition at 1 µM / 3H-RTX binding assay % Inhibition @ 1 μM: compound at 1 μM; for Ki: hVR1, read-out: 3H-RTX binding assay Ki hVR1. As for the experimental part:
Compounds of the present invention were tested for their ability to inhibit the binding of [^3H] RTX to hVR1 receptors in a [^3H]
HEK293 cells were transfected with human VR1 vanilloid receptors and washed with Hank's Balanced Salt Solution, dissociated with cell dissociation buffer (Sigma), and then centrifuged at 1000×g for 5 min. […] The pelleted membranes were kept in an −80° C. freezer.
Approximately 120 μg protein/ml from membranes were incubated with indicated concentrations of [^3H] RTX in 0.5 ml of the HEPES buffer (pH 7.4) containing 0.25 mg/mL fatty acid-free bovine serum albumin at 37° C. for 60 min. […] The tip of the microcentrifuge tube containing the pellet was cut off. Bound radioactivity was quantified by scintillation counting. Non-specific binding was tested in the presence of 200 nM unlabeled RTX.

Test [2] concerns the target T1, human VR1. Kind of test: Human VR1 functional assay (intracellular Ca++, FLIPR, capsaicin challenge). As to conditions: hVR1, capsaicin challenge, read-out: FLIPR functional assay IC50 hVR1. In kind it is cell-based. As for the experimental part:
The functional activity of the test compounds was determined by measuring changes in intracellular calcium concentration using a Ca^++-sensitive fluorescent dye and FLIPR™ technology.
EC50 or IC50 values were determined from dose-response studies.

T1 sequence (Q8NER1 whole entry): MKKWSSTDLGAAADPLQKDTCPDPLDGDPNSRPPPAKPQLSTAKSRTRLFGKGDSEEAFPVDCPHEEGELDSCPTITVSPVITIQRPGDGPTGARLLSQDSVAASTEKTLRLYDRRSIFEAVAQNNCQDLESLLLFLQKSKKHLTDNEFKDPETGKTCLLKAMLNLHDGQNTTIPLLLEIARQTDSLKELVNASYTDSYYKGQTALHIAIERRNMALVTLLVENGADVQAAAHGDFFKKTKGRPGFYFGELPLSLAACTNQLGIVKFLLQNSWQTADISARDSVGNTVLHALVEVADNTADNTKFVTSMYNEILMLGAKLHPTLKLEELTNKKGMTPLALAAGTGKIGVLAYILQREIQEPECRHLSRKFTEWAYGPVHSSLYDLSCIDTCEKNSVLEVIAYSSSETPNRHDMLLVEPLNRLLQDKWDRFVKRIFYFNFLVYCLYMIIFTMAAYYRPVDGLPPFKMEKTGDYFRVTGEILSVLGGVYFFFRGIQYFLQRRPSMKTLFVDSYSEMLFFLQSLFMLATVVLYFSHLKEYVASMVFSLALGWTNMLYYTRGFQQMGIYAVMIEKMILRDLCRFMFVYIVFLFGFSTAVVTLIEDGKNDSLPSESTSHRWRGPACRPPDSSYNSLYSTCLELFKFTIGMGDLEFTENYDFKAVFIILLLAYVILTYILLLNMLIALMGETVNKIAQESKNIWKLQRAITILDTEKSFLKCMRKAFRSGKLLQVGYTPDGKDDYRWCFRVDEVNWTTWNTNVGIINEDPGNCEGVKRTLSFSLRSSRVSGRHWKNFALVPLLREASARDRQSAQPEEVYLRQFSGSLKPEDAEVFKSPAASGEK

Take `O=C(Nc1cnc2ccccc2c1)c1ccc(N2CC[C@@H]3CCCC[C@H]3C2)cc1` (relative stereo) [trans-4-(Octahydro-isoquinolin-2-yl)-N-quinolin-3-yl-benzamide]: on human VR1 [1], the inhibition at 1 µM worked out at 104% and the inhibitory constant (Ki) came out at 29.2 nM.

For the compound `O=C(Nc1cnc2ccccc2c1Cl)c1ccc2c(ccn2C2CCCCC2)c1` [1-Cyclohexyl-1H-indole-5-carboxylic acid (4-chloro-quinolin-3-yl)-amide], the concentration for half-maximal inhibition (IC50) at human VR1 [2] is 166 nM. The same measure, in the same setting: the value for `O=C(Nc1cnc2ccccc2c1)c1ccc2c(ccn2C2CCCCC2)c1` [1-Cyclohexyl-1H-indole-5-carboxylic acid quinolin-3-ylamide] was 74 nM. `CCCCCN(CCCCC)c1ccc(CC(=O)Nc2cnc3ccccc3c2)cc1` [2-(4-Dipentylamino-phenyl)-N-quinolin-3-yl-acetamide]: the Ki on human VR1 [1] was 508 nM. Same read-out and setting: the value for `CCCCCc1ccc(CC(=O)Nc2cnc3ccccc3c2)cc1` [2-(4-Pentyl-phenyl)-N-quinolin-3-yl-acetamide] was 2200 nM; that for `CC(C)(C)c1ccc(CC(=O)Nc2cnc3ccccc3c2)cc1` [2-(4-tert-Butyl-phenyl)-N-quinolin-3-yl-acetamide] was 5760 nM. Regarding `CCCCCCCN(C)c1ccccc1C(=O)Nc1cnc2ccccc2c1` [2-(Heptyl-methyl-amino)-N-quinolin-3-yl-benzamide], the inhibition at 1 µM at human VR1 [1] came to 0%. On the same count and under the same terms, the value for `CCCCCN(C)c1ccccc1C(=O)Nc1cnc2ccccc2c1` [2-(Methyl-pentyl-amino)-N-quinolin-3-yl-benzamide] was 21%. Take `O=C(Nc1cnc2ccccc2c1)c1ccc(NCC2CCCCC2)cc1Cl` [2-Chloro-4-(cyclohexylmethyl-amino)-N-quinolin-3-yl-benzamide]: on human VR1 [1], the inhibition at 1 µM was determined as 65% and the Ki was 1130 nM. Consider `CCCCCNc1ccccc1C(=O)Nc1cnc2ccccc2c1` [2-Pentylamino-N-quinolin-3-yl-benzamide], for which, at human VR1 [1], the inhibition at 1 µM was determined as 23%.

As to `CCCCCN(C)c1ccc(CC(=O)Nc2cnc3ccccc3c2)cc1` [2-{4-(Methyl-pentyl-amino)-phenyl}-N-quinolin-3-yl-acetamide], on human VR1 [1], the inhibitory constant (Ki) came to 1350 nM.

Regarding `O=C(Nc1cnc2ccccc2c1)c1ccc(N2CCCCC2)nc1` [3,4,5,6-Tetrahydro-2H-[1,2′]bipyridinyl-5′-carboxylic acid q] [3,4,5,6-Tetrahydro-2H-[1,2′]bipyridinyl-5′-carboxylic acid quinolin-3-ylamide], the “3H-RTX binding assay % Inhibition @ 1 μM” value at human VR1 [1] is recorded as 1%.

In the case of `O=C(Nc1cnc2ccccc2c1)c1ccc(N2CCCCC2)nc1` [3,4,5,6-Tetrahydro-2H-{1,2′}bipyridinyl-5′-carboxylic acid q] [3,4,5,6-Tetrahydro-2H-{1,2′}bipyridinyl-5′-carboxylic acid quinolin-3-ylamide], at human VR1 [1], the “3H-RTX binding assay % Inhibition @ 1 μM” value worked out at 100%. For `CCCCCN(CCCCC)c1ccc(CCC(=O)Nc2cnc3ccccc3c2)cc1` [3-(4-Dipentylamino-phenyl)-N-quinolin-3-yl-propionamide], the Ki on human VR1 [1] came out at 153 nM. The same measure, in the same setting: the value for `CC(C)(C)c1ccc(C=CC(=O)Nc2cnc3ccccc3c2)cc1` [3-(4-tert-Butyl-phenyl)-N-quinolin-3-yl-acrylamide] was 1.11 nM. Still for that read-out and setting: the value for `CC(C)(C)c1ccc(CCC(=O)Nc2cnc3ccccc3c2)cc1` [3-(4-tert-Butyl-phenyl)-N-quinolin-3-yl-propionamide] was 2.03 nM. As for `CC(C)(C)c1ccc(C#CC(=O)Nc2cnc3ccccc3c2)cc1` [3-(4-tert-Butyl-phenyl)-propynoic acid quinolin-3-ylamide], the IC50 at human VR1 [2] was 66 nM.

For `CN(c1cccc(C(=O)Nc2cnc3ccccc3c2)c1)C1CCCCC1` [3-(Cyclohexyl-methyl-amino)-N-quinolin-3-yl-benzamide], on human VR1 [1], the inhibition at 1 µM was found to be 89% and the Ki worked out at 98.2 nM. Regarding `CC(C)(CCc1ccccc1)c1ccc(CCC(=O)Nc2cnc3ccccc3c2)cc1` [3-{4-(1,1-Dimethyl-3-phenyl-propyl)-phenyl}-N-quinolin-3-yl-propionamide], the Ki on human VR1 [1] is 15.9 nM. With `CCCCCN(C)c1ccc(C=CC(=O)Nc2cnc3ccccc3c2)cc1` [3-{4-(Methyl-pentyl-amino)-phenyl}-N-quinolin-3-yl-acrylamide], on human VR1 [1], the inhibition at 1 µM came out at 65% and the Ki worked out at 122 nM. Consider `CCC(C)(C)c1ccc(CCC(=O)Nc2cnc3ccccc3c2)s1` [3-{5-(1,1-Dimethyl-propyl)-thiophen-2-yl}-N-quinolin-3-yl-propionamide], for which the Ki on human VR1 [1] turned out to be 14.2 nM.

Regarding `O=C(Nc1cnc2ccccc2c1)c1ccc(N2Cc3ccccc3C2)cc1` [4-(1,3-Dihydro-isoindol-2-yl)-N-quinolin-3-yl-benzamide], the inhibition at 1 µM at human VR1 [1] worked out at 1%. On the same count and under the same terms, the value for `O=C(Nc1cnc2ccccc2c1)c1ccc(N2CCC3(CC2)OCCO3)cc1` [4-(1,4-Dioxa-8-aza-spiro[4.5]dec-8-yl)-N-quinolin-3-yl-benzamide] was 9%; that for `CC1CCCN(c2ccc(C(=O)Nc3cnc4ccccc4c3)cc2)C1` (stereo not drawn) [4-(3-Methyl-piperidin-1-yl)-N-quinolin-3-yl-benzamide] was 78%. Turning to `O=C(Nc1cnc2ccccc2c1)c1ccc(N2CCC(C(=O)c3ccccc3)CC2)cc1` [4-(4-Benzoyl-piperidin-1-yl)-N-quinolin-3-yl-benzamide], at human VR1 [1], the inhibition at 1 µM turned out to be 61% and the Ki was determined as 276 nM. In the same order, the values of `O=C(Nc1cnc2ccccc2c1)c1ccc(N2CCC(c3ccccc3)CC2)cc1` [4-(4-Phenyl-piperidin-1-yl)-N-quinolin-3-yl-benzamide] are 34% and 29300 nM. The like results for `CCCCCN(Cc1ccccc1)c1ccc(C(=O)Nc2cnc3ccccc3c2)cc1` [4-(Benzyl-pentyl-amino)-N-quinolin-3-yl-benzamide] were, in that order, 67% and 169 nM. `Cc1cc(C(=O)Nc2cnc3ccccc3c2)ccc1NCC1CCCCC1` [4-(Cyclohexylmethyl-amino)-3-methyl-N-quinolin-3-yl-benzamide]: on human VR1 [1], the inhibition at 1 µM stood at 111% and the Ki came to 87 nM. On to `O=C(Nc1cnc2ccccc2c1)c1ccc(N(CCc2ccccc2)CC2CCCCC2)cc1` [4-(Cyclohexylmethyl-phenethyl-amino)-N-quinolin-3-yl-benzamide], for which, at human VR1 [1], the inhibition at 1 µM is 87% and the Ki came out at 162 nM. Consider `O=C(Nc1cnc2ccccc2c1)c1ccc(NC2CCCCCC2)cc1` [4-Cycloheptylamino-N-quinolin-3-yl-benzamide], for which the 50% inhibitory concentration (IC50) on human VR1 [2] came to 730 nM. For `CCCCCN(CCCCC)c1ccc(C(=O)Nc2cnc3ccccc3c2)cc1` [4-Dipentylamino-N-quinolin-3-yl-benzamide], the Ki at human VR1 [1] was 158 nM. Take `O=C(Nc1cnc2ccccc2c1)c1ccc(N2CCOCC2)cc1` [4-Morpholin-4-yl-N-quinolin-3-yl-benzamide]: the inhibition at 1 µM on human VR1 [1] is 4%. For the compound `O=C(Nc1cnc2ccccc2c1)c1ccc(N2CCCCC2)cc1` [4-Piperidin-1-yl-N-quinolin-3-yl-benzamide], at human VR1 [1], the inhibition at 1 µM was found to be 60% and the inhibition constant Ki came out at 61.2 nM. `O=C(Nc1cnc2ccccc2c1)c1ccc(N2CCCC2)cc1` [4-Pyrrolidin-1-yl-N-quinolin-3-yl-benzamide]: the inhibition at 1 µM at human VR1 [1] was 27%. The same measure, in the same setting: the value for `O=C(Nc1cnc2ccccc2c1)c1ccc(N2CCC(N3CCCCC3)CC2)cc1` [4-[1,4′]Bipiperidinyl-1′-yl-N-quinolin-3-yl-benzamide] was 8%. Take `CCCCC(C)(C)c1ccc(C=CCC(=O)Nc2cnc3ccccc3c2)cc1` [4-{4-(1,1-Dimethyl-pentyl)-phenyl}-but-3-enoic acid quinolin-3-ylamide]: on human VR1 [1], the inhibition at 1 µM amounted to 80% and the inhibition constant (Ki) is 194 nM. In the same order, the values of `CCC(C)(C)c1ccc(CCCC(=O)Nc2cnc3ccccc3c2)cc1` [4-{4-(1,1-Dimethyl-propyl)-phenyl}-N-quinolin-3-yl-butyramide] are 65% and 527 nM. The like results for `CN(CC=Cc1ccccc1)c1ccc(C(=O)Nc2cnc3ccccc3c2)cc1` [4-{Methyl-(3-phenyl-allyl)-amino}-N-quinolin-3-yl-benzamide] were, in that order, 79% and 125 nM. With `CN(c1ccc(C(=O)Nc2cnc3ccccc3c2)cc1)C1CCOCC1` [4-{Methyl-(tetrahydro-pyran-4-yl)-amino}-N-quinolin-3-yl-benzamide], the inhibition at 1 µM on human VR1 [1] was 19%. Regarding `CC1(C)CCC(C)(C)c2cc(C(=O)Nc3cnc4ccccc4c3)ccc21` [5,5,8,8-Tetramethyl-5,6,7,8-tetrahydro-naphthalene-2-carboxylic acid quinolin-3-ylamide], on human VR1 [1], the inhibitory constant (Ki) came to 30.4 nM. Take `O=C(Nc1cnc2ccccc2c1)c1ccc(NC2CCOCC2)cc1` [N-Quinolin-3-yl-4-(tetrahydro-pyran-4-ylamino)-benzamide]: the inhibition at 1 µM on human VR1 [1] came to 9%. For `O=C(Nc1cnc2ccccc2c1)c1ccc(N2CCSCC2)cc1` [N-Quinolin-3-yl-4-thiomorpholin-4-yl-benzamide], the inhibition at 1 µM at human VR1 [1] worked out at 41%. Take `CC(C)=CCC[C@@H](C)CCN(C)c1ccc(C(=O)Nc2cnc3ccccc3c2)cc1` [R-4-{(3,7-Dimethyl-oct-6-enyl)-methyl-amino}-N-quinolin-3-yl-benzamide]: at human VR1 [1], the inhibition at 1 µM amounted to 105% and the Ki stood at 11.1 nM.

As a reminder, the inhibition is the drop in the measured response relative to a control, in per cent. In general, Ki refers to a measure of affinity in units of concentration, obtained from inhibition or displacement. As usually defined, the IC50 is the concentration at which inhibition is half-maximal.
